# Experimental data taken from patent publication US20260248765A1, “TIME RELEASE SLEEP AID SYSTEM” (NightWise, LLC, priority 2017, published 2026).
# Test: Release time based on dissolution times of each ingredient in water
# Type: physicochemical
# Details: soft chew composition of Table 2
# Method: The release time was determined based on dissolution times of each ingredient in water.
row,Release Time [min],Structure (SMILES)
1,0,N[C@@H](Cc1c[nH]c2ccc(O)cc12)C(=O)O [5-Hydroxytryptophan]
2,0,"COc1ccc2[nH]cc(CCNC(C)=O)c2c1 [Melatonin, reference compound]"
3,0,NCCCC(=O)O [PHARMAGABA ™]
4,0,"CN1c2c(nc(N)[nH]c2=O)NC[C@@H]1CNc1ccc(C(=O)N[C@@H](CCC(=O)O)C(=O)O)cc1.N[C@H]1C(O)O[C@H](CO)[C@@H](O)[C@@H]1O [QUATREFOLIC ™, (6S)-5-methyltetrahydrofolic acid, glucosamine salt]"
5,0,Cc1cc2nc3c(=O)[nH]c(=O)nc-3n(C[C@H](O)[C@H](O)[C@H](O)COP(=O)([O-])O)c2cc1C.[Na+] [Riboflavin 5′-Phosphate Sodium]
6,0,"Cc1ncc(COP(=O)(O)O)c(C=O)c1O.O [Vitamin B6, pyridoxal-5-phosphate monohydrate]"
7,0,"C/C1=C2/[N-][C@H]([C@H](CC(N)=O)[C@@]2(C)CCC(=O)NC[C@@H](C)OP(=O)([O-])O[C@H]2[C@@H](O)[C@@H](n3cnc4cc(C)c(C)cc43)O[C@@H]2CO)[C@]2(C)N=C(/C(C)=C3N=C(/C=C4N=C1[C@@H](CCC(N)=O)C\4(C)C)[C@@H](CCC(N)=O)[C@]\3(C)CC(N)=O)[C@@H](CCC(N)=O)[C@]2(C)CC(N)=O.[CH3-].[Co+3] [Vitamin B12, methylcobalamin]"

row,Structure (SMILES),Release Time [min]
1,NCC(=O)[O-].NCC(=O)[O-].[Mg+2] [Magnesium Glycinate],0
